In patent US4443436A, “C-20-Modified macrolide derivatives of the macrolide antibiotics tylosin, desmycosin, macrocin, and lactenocin” (Eli Lilly and Company, priority 1982, dated 1984):
Values after ≈ are worked out from the molar mass of the structure shown. Where two headings read alike, the source gives them in different places.

Assays:
[1] = tested on: Staphylococcus epidermidis EPI2; assay: MIC, standard agar-dilution assay, Staphylococcus epidermidis EPI2; assay type: cell-based; settings: Staphylococcus epidermidis EPI2; agar dilution; read-out: MIC
Mycoplasma hyopneumoniae = assay: MIC, broth-dilution microtiter test, Mycoplasma hyopneumoniae; assay type: cell-based; settings: Mesomycoplasma hyopneumoniae; Mycoplasma hyopneumoniae; broth-dilution microtiter; read-out: MIC
From the text: (§1) The MIC's in Table X were obtained using conventional broth-dilution microtiter tests.

[2] = tested on: Streptococcus pneumoniae Park I; assay: microbe, parasite or virus in culture; assay type: cell-based
Pasteurella multocida [3] = assay: Oral (gavage) treatment of Pasteurella multocida-infected chicks; assay type: in vivo, one-day-old chicks
How it was run: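 Dosing either by gavage at 1 and 5 h after infection, or subcutaneously at 30 mg/kg at 1 and 4 h after infection. Birds were day-old chicks infected s.c. with 0.1 ml of avian Pasteurella multocida culture (twenty-hour tryptose broth, diluted 10^-4).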

[4] = tested on: Streptococcus pyogenes C203; assay: In vivo protection of mice experimentally infected with S. pyogenes C203; settings: mice, doses given 1 and 4 hours post-infection; for ED50: Streptococcus pyogenes
Procedure: The C-20 modified derivatives of this invention have shown in vivo antimicrobial activity against experimentally-induced infections in laboratory animals. When two doses of test compound were administered to mice experimentally infected with S. pyogenes C203, the activity observed was measured as an ED50 value [effective dose in mg/kg to protect 50% of the test animals: see Warren Wick, et al., J. Bacteriol. 81, 233-235 (1961)].

[5] = tested on: Staphylococcus aureus X1.1; assay: MIC, standard agar-dilution assay, Staphylococcus aureus X1.1; assay type: cell-based; settings: Staphylococcus aureus X1.1, agar dilution
[6] = tested on: Pasteurella multocida 17E; assay: MIC, broth-dilution microtiter test, Pasteurella multocida 17E; assay type: cell-based; settings: Pasteurella multocida 17E; bovine isolate; broth-dilution microtiter; read-out: MIC
From the text: as §1

[7] = tested on: Staphylococcus aureus V41; assay: MIC, standard agar-dilution assay, Staphylococcus aureus V41; assay type: cell-based; settings: Staphylococcus aureus V41, penicillin-resistant strain, agar dilution
Mycoplasma synoviae = assay: MIC, broth-dilution microtiter test, Mycoplasma synoviae; assay type: cell-based; settings: Mycoplasmopsis synoviae; Mycoplasma synoviae; broth-dilution microtiter; read-out: MIC
From the text: as §1

[8] = tested on: Haemophilus influenzae R252; assay: MIC, standard agar-dilution assay, Haemophilus influenzae R252; assay type: cell-based; settings: Haemophilus influenzae R252, ampicillin-resistant strain
Streptococcus bovis 80 = assay: MIC, broth-dilution microtiter test, Streptococcus bovis 80; assay type: cell-based; settings: Streptococcus bovis 80, broth-dilution microtiter
From the text: as §1

Mycoplasma hyorhinis = assay: MIC, broth-dilution microtiter test, Mycoplasma hyorhinis; assay type: cell-based
From the text: as §1

[9] = tested on: Pasteurella hemolytica 22C; assay: MIC, broth-dilution microtiter test, Pasteurella hemolytica 22C; assay type: cell-based; settings: Pasteurella hemolytica 22C, broth-dilution microtiter
From the text: as §1

[10] = tested on: Pasteurella multocida 60A; assay: MIC, broth-dilution microtiter test, Pasteurella multocida 60A; assay type: cell-based; settings: Pasteurella multocida 60A; avian isolate; broth-dilution microtiter; read-out: MIC
From the text: as §1

Staphylococcus aureus = assay: MIC, broth-dilution microtiter test, Staphylococcus aureus; assay type: cell-based; settings: broth-dilution microtiter
From the text: as §1

Pasteurella multocida [11] = assay: Subcutaneous treatment of Pasteurella multocida-infected chicks; assay type: in vivo, one-day-old chicks; settings: 30 mg/kg × 2, 1 and 4 hours post-challenge
Procedure: Many of the C-20 modified derivatives of this invention have also shown in vivo antibacterial activity against infections induced by gram-negative bacteria. Tables XII and XIII summarize the results of tests in which illustrative compounds were evaluated against Pasteurella infection in one-day-old chicks. The compounds were administered parenterally or orally after challenge of the chicks with Pasteurella multocida (0.1 ml of a 10^-4 dilution of a twenty-hour tryptose broth culture of an avian P. multocida given subcutaneously). In these tests, unless indicated otherwise, all non-medicated infected chicks died within 24 hours of Pasteurella challenge. In the tests summarized in Table XII the compounds were administered by subcutaneous injection at a dosage of 30 mg/kg, 1 and 4 hours post-challenge of the chicks with P. multocida. In the test summarized in Table XIII the compounds were administered by gavage at 1 and 5 hours post-challenge of the chicks with P. multocida.

[12] = tested on: Staphylococcus epidermidis EPI1; assay: MIC, standard agar-dilution assay, Staphylococcus epidermidis EPI1; assay type: cell-based
Mycoplasma gallisepticum [13] = assay: MIC, broth-dilution microtiter test, Mycoplasma gallisepticum; assay type: cell-based; settings: Mycoplasma gallisepticum, broth-dilution microtiter
From the text: as §1

[14] = tested on: Haemophilus influenzae Holt; assay: MIC, standard agar-dilution assay, Haemophilus influenzae Holt; assay type: cell-based; settings: Haemophilus influenzae Holt, ampicillin-sensitive strain
[15] = tested on: Staphylococcus aureus S13E; assay: MIC, standard agar-dilution assay, Staphylococcus aureus S13E; assay type: cell-based
[16] = tested on: Streptococcus pyogenes C203; assay: MIC, standard agar-dilution assay, Streptococcus pyogenes C203; assay type: cell-based; settings: Streptococcus pyogenes C203, agar dilution
[17] = tested on: Streptococcus Group D X66; assay: MIC, standard agar-dilution assay, Streptococcus Group D X66; assay type: cell-based; settings: Streptococcus Group D X66, agar dilution
[18] = tested on: Staphylococcus aureus X400; assay: MIC, standard agar-dilution assay, Staphylococcus aureus X400; assay type: cell-based; settings: Staphylococcus aureus X400, methicillin-resistant strain, agar dilution
Mycoplasma gallisepticum [19] = assay: Antimycoplasmal activity in chicks infected with Mycoplasma gallisepticum; assay type: in vivo, two- to three-day-old chicks; settings: gavage five times, equivalent to 0.5 g/gal
Procedure: In these tests infections were induced in chicks by injecting 0.2 ml of a broth culture of M. gallisepticum into the abdominal air sac of two- to three-day-old chicks. The compounds were administered by gavage five times at a dose equivalent to 0.5 g/gal (on the day of challenge once prior to and once following the challenge, two times on the next day and once on the third day). Twenty-one days post-infection, the chicks were weighed, a blood sample was taken, and the chicks were sacrificed. The presence or absence of air-sac lesions was recorded.

Streptococcus Group 9960 = assay: MIC, standard agar-dilution assay, Streptococcus Group 9960; assay type: cell-based; settings: Streptococcus Group 9960; agar dilution

CCC1OC(=O)CC(O)C(C)C(OC2OC(C)C(O)C(N(C)C)C2O)C(CCOC(C)=O)CC(C)C(=O)C=CC(C)=CC1COC1OC(C)C(O)C(OC)C1OC (centres unmarked) [Compound 29, 20-DH-20-O-Acetyldesmycosin]
MIC [1]: 0.12 µg/mL (≈ 0.147 µM) | MIC (Mycoplasma hyopneumoniae): 12.5 µg/mL (≈ 15.3 µM) | MIC ([2]; Streptococcus pneumoniae): 0.25 µg/mL (≈ 0.306 µM) | Number of Deaths/Number tested (Pasteurella multocida [3]; 0.5 g/gal equivalent): 0/10 | Number of Deaths/Number tested (Pasteurella multocida [3]; 1.0 g/gal equivalent): 3/10 | ED50 ([4]; C203, sc, subcutaneous, read-out: ED50, Subcutaneous): 3.4 mg/kg | ED50 ([4]; C203, oral, read-out: ED50, Oral): 36 mg/kg | MIC ([5]; read-out: MIC): 0.5 µg/mL (≈ 0.613 µM) | MIC [6]: 12.5 µg/mL (≈ 15.3 µM) | MIC ([7]; read-out: MIC): 0.5 µg/mL (≈ 0.613 µM) | MIC (Mycoplasma synoviae): 1.56 µg/mL (≈ 1.91 µM) | MIC ([8]; read-out: MIC): 16 µg/mL (≈ 19.6 µM) | MIC (Streptococcus bovis 80; Streptococcus equinus, read-out: MIC): 0.78 µg/mL (≈ 0.956 µM) | MIC (Mycoplasma hyorhinis; Mycoplasma): 50 µg/mL (≈ 61.3 µM) | MIC ([9]; read-out: MIC): 25 µg/mL (≈ 30.6 µM) | MIC [10]: 25 µg/mL (≈ 30.6 µM) | MIC (Staphylococcus aureus; read-out: MIC): 0.78 µg/mL (≈ 0.956 µM) | Number of Deaths/Number Treated (Pasteurella multocida [11]): 5/10 | MIC ([12]; Staphylococcus epidermidis, EPI1): 0.25 µg/mL (≈ 0.306 µM) | MIC (Mycoplasma gallisepticum [13]; Mycoplasmoides gallisepticum, read-out: MIC): 0.39 µg/mL (≈ 0.478 µM) | MIC ([14]; read-out: MIC): 16 µg/mL (≈ 19.6 µM) | MIC ([15]; Staphylococcus aureus, S13E): 0.25 µg/mL (≈ 0.306 µM) | MIC ([16]; read-out: MIC): 2 µg/mL (≈ 2.45 µM) | MIC ([17]; read-out: MIC): 8 µg/mL (≈ 9.8 µM) | MIC ([18]; read-out: MIC): 0.5 µg/mL (≈ 0.613 µM)

CCC1OC(=O)CC(O)C(C)C(OC2OC(C)C(O)C(N(C)C)C2O)C(CCN=[N+]=[N-])CC(C)C(=O)C=CC(C)=CC1COC1OC(C)C(O)C(OC)C1OC (centres unmarked) [Compound 44, 20-DH-DO-20-Azidodesmycosin]
Number with Antibodies/Number Tested (Mycoplasma gallisepticum [19]; antibodies to M. gallisepticum, 21 days post-infection): 9/10 | Mortality (Mycoplasma gallisepticum [19]): 0/10 | Number with Air-Sac Lesions/Number Treated (Mycoplasma gallisepticum [19]; 21 days post-infection): 7/10 | MIC (Streptococcus Group 9960): 8 µg/mL (≈ 10 µM) | MIC ([2]; Streptococcus pneumoniae Park I, agar dilution): 2 µg/mL (≈ 2.5 µM) | ED50, Oral ([4]; oral): 13 mg/kg × 2 | ED50, Subcutaneous ([4]; subcutaneous): 3.8 mg/kg × 2 | MIC [5]: 0.12 µg/mL (≈ 0.15 µM) | MIC [7]: 0.12 µg/mL (≈ 0.15 µM) | MIC ([8]; agar dilution): 4 µg/mL (≈ 5.01 µM) | MIC (Streptococcus bovis 80): 6.25 µg/mL (≈ 7.82 µM) | MIC (Mycoplasma hyorhinis; Mycoplasma hyorhinis, broth-dilution microtiter): 50 µg/mL (≈ 62.6 µM) | MIC [9]: 12.5 µg/mL (≈ 15.6 µM) | MIC (Staphylococcus aureus): 0.39 µg/mL (≈ 0.488 µM) | Number of Deaths/Number Treated (Pasteurella multocida [11]): 9/10 | MIC ([12]; Staphylococcus epidermidis EPI1, agar dilution): 0.12 µg/mL (≈ 0.15 µM) | MIC (Mycoplasma gallisepticum [13]): 0.39 µg/mL (≈ 0.488 µM) | MIC ([14]; agar dilution): 16 µg/mL (≈ 20 µM) | MIC ([15]; Staphylococcus aureus S13E, agar dilution): 0.12 µg/mL (≈ 0.15 µM) | MIC [16]: 0.25 µg/mL (≈ 0.313 µM) | MIC [17]: 4 µg/mL (≈ 5.01 µM) | MIC [18]: 0.25 µg/mL (≈ 0.313 µM)
